# Measurements published in US9169260B2 (MERCK SHARP & DOHME CORP., priority 2011, dated 2015).
# Target: GST tagged IRAK-4 (Homo sapiens (Human), UniProt Q9NWZ3)
# Assay: IRAK-4 Kinase Assay (IMAP fluorescence polarization)
# Type: biochemical
# Settings: 100 μM ATP, 30 minutes at 25° C.
# How it was run: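 Activity was read by IMAP fluorescence polarization, where phosphopeptide binding to M(III) nanoparticles raises FP. The 30-minute, 25° C reaction used 100 μM ATP, 100 nM RP7030 substrate and 0.5 nM GST-IRAK-4 in pH 7.2 Tris buffer with MgCl2, DTT and Tween 20.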
# Chain of GST tagged IRAK-4 (Q9NWZ3 whole entry): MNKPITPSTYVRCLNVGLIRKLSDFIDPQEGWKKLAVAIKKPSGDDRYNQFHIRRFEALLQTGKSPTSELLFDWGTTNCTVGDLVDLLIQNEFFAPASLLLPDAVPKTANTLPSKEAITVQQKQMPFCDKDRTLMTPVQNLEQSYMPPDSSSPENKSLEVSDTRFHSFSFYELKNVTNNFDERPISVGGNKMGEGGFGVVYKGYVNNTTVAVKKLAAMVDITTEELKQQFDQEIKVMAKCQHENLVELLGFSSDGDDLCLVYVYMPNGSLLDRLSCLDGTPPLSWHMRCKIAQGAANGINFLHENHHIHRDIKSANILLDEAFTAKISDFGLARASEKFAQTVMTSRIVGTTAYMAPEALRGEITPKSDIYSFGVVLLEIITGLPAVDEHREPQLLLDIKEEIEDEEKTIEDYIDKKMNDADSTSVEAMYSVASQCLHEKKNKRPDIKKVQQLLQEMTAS
SMILES,IC50,IC50 (μM)
"Cc1ccc(-n2nc(-c3ccc(C(=O)N(C)C)cc3)cc2NC(=O)c2cnn3cccnc23)cc1 [Example 349, N-{3-[4-(dimethylcarbamoyl)phenyl]-1-(4-methylphenyl)-1H-pyrazol-5-yl}pyrazolo[1,5-a]pyrimidine-3-carboxamide]",< 0.1 µM,–
"Cc1ccc(-n2nc(C3CCN(CC(F)(F)F)CC3)cc2NC(=O)c2cnn3cccnc23)cc1 [Example 41, N-(1-(p-tolyl)-3-(1-(2,2,2-trifluoroethyl)piperidin-4-yl)-1H-pyrazol-5-yl)pyrazolo[1,5-a]pyrimidine-3-carboxamide]",< 0.1 µM,–
"Cc1cccc(-n2nc(C3CCNCC3)cc2NC(=O)c2cnn3cccnc23)c1 [Example 15, N-(3-(piperidin-4-yl)-1-(m-tolyl)-1H-pyrazol-5-yl)pyrazolo[1,5-a]pyrimidine-3-carboxamide]",–,< 1 µM
"Cc1ccc(-n2nc(-c3c(F)cccc3OCc3ccccc3)cc2NC(=O)c2cnn3cccnc23)cc1 [Example 339, N-{3-[2-(benzyloxy)-6-fluorophenyl]-1-(4-methylphenyl)-1H-pyrazol-5-yl}pyrazolo[1,5-a]pyrimidine-3-carboxamide]",–,< 1 µM
"Cc1ccc(-n2nc(-c3ccc(S(=O)(=O)C4CC4)cc3)cc2NC(=O)c2cnn3cccnc23)cc1 [Example 336, N-{3-[4-(cyclopropylsulfonyl)phenyl]-1-(4-methylphenyl)-1H-pyrazol-5-yl}pyrazolo[1,5-a]pyrimidine-3-carboxamide]",< 0.1 µM,–
"Cc1ccc(-n2nc(C3CCN(S(=O)(=O)c4cccc(C#N)c4)CC3)cc2NC(=O)c2cnn3cccnc23)cc1 [Example 374, N-[3-{1-[(3-cyanophenyl)sulfonyl]piperidin-4-yl}-1-(4-methylphenyl)-1H-pyrazol-5-yl]pyrazolo[1,5-a]pyrimidine-3-carboxamide]",–,< 1 µM
"Cc1ccc(-n2nc(C3CCN(Cc4ncco4)CC3)cc2NC(=O)c2cnn3cccnc23)cc1 [Example 232, N-{1-(4-methylphenyl)-3-[1-(1,3-oxazol-2-ylmethyl)piperidin-4-yl]-1H-pyrazol-5-yl}pyrazolo[1,5-a]pyrimidine-3-carboxamide]",–,< 1 µM
"CCCS(=O)(=O)N1CCC(c2cc(NC(=O)c3cnn4cccnc34)n(-c3ccc(C)cc3)n2)CC1 [Example 361, N-{1-(4-methylphenyl)-3-[1-(propylsulfonyl)piperidin-4-yl]-1H-pyrazol-5-yl}pyrazolo[1,5-a]pyrimidine-3-carboxamide]",–,< 1 µM
"Cc1ccc(-n2nc(-c3ccc(S(C)(=O)=O)nc3)cc2NC(=O)c2cnn3cccnc23)cc1 [Example 351, N-{1-(4-methylphenyl)-3-[6-(methylsulfonyl)pyridin-3-yl]-1H-pyrazol-5-yl}pyrazolo[1,5-a]pyrimidine-3-carboxamide]",–,< 1 µM
"Cc1ccc(-n2nc(-c3ccc(S(=O)(=O)N4CCC4)cc3)cc2NC(=O)c2cnn3cccnc23)cc1 [Example 344, N-{3-[4-(azetidin-1-ylsulfonyl)phenyl]-1-(4-methylphenyl)-1H-pyrazol-5-yl}pyrazolo[1,5-a]pyrimidine-3-carboxamide]",< 0.1 µM,–
"Cc1cnc(-n2nc(C3CCN(S(C)(=O)=O)CC3)cc2NC(=O)c2cnn3cccnc23)nc1 [Example 170, N-(1-(5-methylpyrimidin-2-yl)-3-(1-(methylsulfonyl)piperidin-4-yl)-1H-pyrazol-5-yl)pyrazolo[1,5-a]pyrimidine-3-carboxamide]",< 0.1 µM,–
Cc1ccc(-n2nc(C3CCN(S(=O)(=O)c4ccc(Cl)nc4)CC3)cc2NC(=O)c2cnn3cccnc23)cc1 [Example 382],–,< 1 µM
"COc1ncccc1CN1CC(c2cc(NC(=O)c3cnn4cccnc34)n(-c3ccc(C)cc3)n2)C1 [Example 313, N-[3-{1-[(2-methoxypyridin-3-yl)methyl]azetidin-3-yl}-1-(4-methylphenyl)-1H-pyrazol-5-yl]pyrazolo[1,5-a]pyrimidine-3-carboxamide]",< 0.1 µM,–
"Cc1ccc(-n2nc(C3CCN(S(=O)(=O)c4ccccc4F)CC3)cc2NC(=O)c2cnn3cccnc23)cc1 [Example 378, N-[3-{1-[(2-fluorophenyl)sulfonyl]piperidin-4-yl}-1-(4-methylphenyl)-1H-pyrazol-5-yl]pyrazolo[1,5-a]pyrimidine-3-carboxamide]",–,< 1 µM
"CC(C)N1CCC(c2cc(NC(=O)c3cnn4cccnc34)n(-c3ccc(C4CC4)cc3)n2)CC1 [Example 55, N-(1-(4-cyclopropylphenyl)-3-(1-isopropylpiperidin-4-yl)-1H-pyrazol-5-yl)pyrazolo[1,5-a]pyrimidine-3-carboxamide]",< 0.1 µM,–
"Cc1ccc(-n2nc(C3CCN(C4CCC(C(F)(F)F)CC4)CC3)cc2NC(=O)c2cnn3cccnc23)nc1 (stereo not shown) [Example 271, N-[1-(5-methylpyridin-2-yl)-3-{1-[4-(trifluoromethyl)cyclohexyl]piperidin-4-yl}-1H-pyrazol-5-yl]pyrazolo[1,5-a]pyrimidine-3-carboxamide]",< 0.1 µM,–

SMILES,IC50,IC50 (μM)
"Cc1ccc(-n2nc(C3CCN(S(=O)(=O)C4CCCCC4)CC3)cc2NC(=O)c2cnn3cccnc23)cc1 [Example 373, N-{3-[1-(cyclohexylsulfonyl)piperidin-4-yl]-1-(4-methylphenyl)-1H-pyrazol-5-yl}pyrazolo[1,5-a]pyrimidine-3-carboxamide]",–,< 1 µM
"Cc1ccc(-n2nc(-c3ccc(S(=O)(=O)N4CCOCC4)cc3)cc2NC(=O)c2cnn3cccnc23)nc1 [Example 177, N-(1-(5-methylpyridin-2-yl)-3-(4-(morpholinosulfonyl)phenyl)-1H-pyrazol-5-yl)pyrazolo[1,5-a]pyrimidine-3-carboxamide]",< 0.1 µM,–
"Cc1nn(C)c2nc(-n3nc(C4CCN(S(C)(=O)=O)CC4)cc3NC(=O)c3cnn4cccnc34)ccc12 [Example 175, N-(1-(1,3-dimethyl-1H-pyrazolo[3,4-b]pyridin-6-yl)-3-(1-(methylsulfonyl)piperidin-4-yl)-1H-pyrazol-5-yl)pyrazolo[1,5-a]pyrimidine-3-carboxamide]",–,< 1 µM
"Cc1ccc(-n2nc(C3CCN(C(C)C)CC3)cc2NC(=O)c2cnn3cccnc23)c(Cl)c1 [Example 66, N-(1-(2-chloro-4-methylphenyl)-3-(1-isopropylpiperidin-4-yl)-1H-pyrazol-5-yl)pyrazolo[1,5-a]pyrimidine-3-carboxamide]",–,< 1 µM
"Cc1ccc(-n2nc(C3CCN(C4CCC(NS(C)(=O)=O)CC4)CC3)cc2NC(=O)c2cnn3cccnc23)cc1 (stereo not shown) [Example 252, N-[1-(4-methylphenyl)-3-(1-{4-[(methylsulfonyl)amino]cyclohexyl}piperidin-4-yl)-1H-pyrazol-5-yl]pyrazolo[1,5-a]pyrimidine-3-carboxamide]",< 0.1 µM,–
"O=C(Nc1cc(C2CCNCC2)nn1-c1ccc(C(F)(F)F)cc1)c1cnn2cccnc12 [Example 11, N-(3-(piperidin-4-yl)-1-(4-(trifluoromethyl)phenyl)-1H-pyrazol-5-yl)pyrazolo[1,5-a]pyrimidine-3-carboxamide]",–,< 1 µM
"C[C@H](N)c1ccc(-n2nc(C3CCN(S(C)(=O)=O)CC3)cc2NC(=O)c2cnn3cccnc23)nc1 [Example 164, (S)—N-(1-(5-(1-aminoethyl)pyridin-2-yl)-3-(1-(methylsulfonyl)piperidin-4-yl)-1H-pyrazol-5-yl)pyrazolo[1,5-a]pyrimidine-3-carboxamide]",< 0.1 µM,–
"Cc1ccc(-n2nc(C3CCN(C4CCN(c5ccc(F)cc5)C4)CC3)cc2NC(=O)c2cnn3cccnc23)nc1 (stereo not shown) [Example 266, N-[3-{1-[1-(4-fluorophenyl)pyrrolidin-3-yl]piperidin-4-yl]-1-(5-methylpyridin-2-yl)-1H-pyrazol-5-yl}pyrazolo-[1,5-a]pyrimidine-3-carboxamide]",< 0.1 µM,–
"CCN(CC)CCC(=O)N1CCC(c2cc(NC(=O)c3cnn4cc(Br)cnc34)n(-c3ccc(C)cc3)n2)CC1 [Example 114, 6-bromo-N-(3-(1-(3-(diethylamino)propanoyl)piperidin-4-yl)-1-(p-tolyl)-1H-pyrazol-5-yl)pyrazolo[1,5-a]pyrimidine-3-carboxamide]",< 0.1 µM,–
"CCOC(=O)N1CC(N2CCC(c3cc(NC(=O)c4cnn5cccnc45)n(-c4ccc(C)cc4)n3)CC2)C1 [Example 239, ethyl 3-(4-{1-(4-methylphenyl)-5-[(pyrazolo[1,5-a]pyrimidin-3-ylcarbonyl)amino]-1H-pyrazol-3-yl}piperidin-1-yl)azetidine-1-carboxylate]",–,< 1 µM
"O=C(Nc1cc(C2CCNCC2)nn1-c1ccc(C2CC2)cc1F)c1cnn2cccnc12 [Example 72, N-(1-(4-cyclopropyl-2-fluorophenyl)-3-(piperidin-4-yl)-1H-pyrazol-5-yl)pyrazolo[1,5-a]pyrimidine-3-carboxamide]",< 0.1 µM,–
"Cc1ccc(-n2nc(C3CCN(C4CC4)CC3)cc2NC(=O)c2cnn3cccnc23)cc1 [Example 40, N-(3-(1-cyclopropylpiperidin-4-yl)-1-(p-tolyl)-1H-pyrazol-5-yl)pyrazolo[1,5-a]pyrimidine-3-carboxamide]",< 0.1 µM,–
"Cc1ccc(-n2nc(-c3ccc(S(=O)(=O)N(C)C)cc3C)cc2NC(=O)c2cnn3cccnc23)cc1 [Example 345, N-{3-[4-(dimethylsulfamoyl)-2-methylphenyl]-1-(4-methylphenyl)-1H-pyrazol-5-yl}pyrazolo[1,5-a]pyrimidine-3-carboxamide]",< 0.1 µM,–
"Cc1ccc(-n2nc(C3CCN(C4CN(S(=O)(=O)C(C)C)C4)CC3)cc2NC(=O)c2cnn3cccnc23)cc1 [Example 246, N-[3-(1-{1-[(1-methylethyl)sulfonyl]azetidin-3-yl}piperidin-4-yl)-1-(4-methylphenyl)-1H-pyrazol-5-yl]pyrazolo[1,5-a]pyrimidine-3-carboxamide]",–,< 1 µM
"Cc1ccc(-n2nc(C3CCN(S(C)(=O)=O)CC3)cc2NC(=O)c2cnn3cc(C#N)cnc23)nc1 [Example 191, 6-cyano-N-(1-(5-methylpyridin-2-yl)-3-(1-(methylsulfonyl)piperidin-4-yl)-1H-pyrazol-5-yl)pyrazolo[1,5-a]pyrimidine-3-carboxamide]",< 0.1 µM,–
